Values of other authors as cited in patent US8420593B1, “Compositions and methods for regulating membrane potential” (priority 2006, dated 2013).
Structures can show the parent of a compound that is named as a salt. Where two headings read alike, the source gives them in different places.

Experiments:
[1] = test system: chronic spinal cord injury; conditions: in vivo
[2] = test system: spinal cord injury; conditions: days 25, 26 and 27
[3] = test system: sodium channels
[4] = test system: spinal cord injury
[5] = test system: potassium currents in PC12 cells

Nc1ccncc1 [4-AP, 4-aminopyridine]
side effects associated with central nervous system activation [1]: restlessness, confusion, and infrequently reported findings of generalized tonic-clonic seizure
motor function (open field walking analysis) ([2]; 0.6 mg/kg, ip, compared with HP184): This improvement was equaled by the improvement observed with 4-AP

CCCN(c1ccncc1F)n1cc(C)c2ccccc21 [HP184, N-[N-propyl]-N-[3-fluoro-4-pyridinyl]-1H-3-methylindole-1-amine hydrochloride]
motor function (open field walking analysis) ([2]; 3, 10 and 20 mg/kg, po, established (25 day post injury) injury, mild intensity): significantly improved motor function
activity on sodium channels [3]: use- and frequency dependent blocker of sodium channels
motor function (open field walking) ([4]; 3 mg/kg, po, long-standing (35 day post injury) injury, moderate intensity): significantly improved motor function
improvement in walking ability, multiple dose studies ([4]; once a day oral dosing at 3, 1 and 0.3 mg/kg, moderately injured rats, compression model): confirmed the effectiveness
activity on potassium currents [5]: voltage dependent blocker of potassium currents
